{"source": "patent US8039464B2", "about": "“Muscarinic antagonists with PARP and SIR modulating activity as agents for inflammatory diseases” (ProteoSys AG, priority 2004, dated 2011)", "key": {"[1]": {"test_system": "D3 embryonic stem (ES) cells, neurons", "assay": "Cell culture model for chemical ischemia and neuroprotection (calcium imaging)", "format": "cell-based, mice", "settings": "β-methyl-cyclodextrin or filipin", "method": "For all experiments, D3 embryonic stem (ES) cells derived from 129/sv mice [Okabe et al., 1996] were cultivated for 12 days, with passages on days 2, 4, 7 and 9 as described previously [Sommer et al., 2004]. Insult conditions: Cells (24-well plates) were pre-incubated with or without 20 nM EPO in fresh medium for 24 hours at 37° C. Cells were rinsed once with low K^+ solution (140 mM NaCl, 4.7 mM KCl, 1.2 mM KH2PO4, 2.5 mM CaCl2, 1.2 mM MgSO4, 11 mM glucose, 15 mM Hepes-NaOH, pH 7.35). Cells (either with or without EPO pre-incubation) were incubated for up to 45 min (37° C.) with either low K^+ solution or with glucose-free low K^+ solution supplemented with 1 mM KCN (chemical ischemia solution [Kume et al., 2002]). Vitality control to asses numbers of surviving neurons was performed by a brief stimulation with a low dose of glutamate (10 μM). Afterwards, cells were washed three times with ice cold phosphate buffered saline (PBS), and then proteins were harvested. Suspended cells were pelleted at 500×G, and lysed into 9M urea 4% CHAPS. The cell lysate was desalted with a NAP-10 column (Amersham Biosciences), preequilibrated with the same buffer, and protein content was determined.\nFunctional tests by calcium imaging were performed essentially as described [Sommer et al., 2004]. Briefly, cells were loaded with 2 μM of […] in DMEM for 45 min at 37° C. in the dark. Measurements of relative changes in [Ca^2+] were made on an inverted epifluorescence microscope (Olympus IX70 S1F2) with a Polychrom IV Monochromator (Xe-lamp, USHIO). Excitation wavelengths (λ1, λ2) and the emission wavelength were 340, 380 and 510 nm, respectively. Acquisition and analysis of data after appropriate stimulation were performed by using MetaFluor software (Universal Imaging Corporation). Image resolution was 168×129 pixels (binning 8×8, pixel size 6.8×6.8 μm). Only cells identified as neurons by morphological criteria and occasional immunostaining (not shown) and those whose calcium levels returned to the resting state after the first stimulation were taken into account. Controls included nominal zero calcium (negative) and 5 μM ionomycin (positive), 10 μM glutamate (positive) and depolarisation (55 mM K+) (positive). Pharmacological agents were applied by a multi-valve, single-output focal drug application device (ALA Scientific) with the perfusion system DAD-12. […] During each stimulation event 20 image pairs were acquired."}, "A 549 cells": {"test_system": "A 549 cells", "assay": "LPS challenge, cell survival by Trypan Blue", "format": "cell-based", "settings": "LPS 100 ng/ml for 60 min", "method": "(§1) Cell pellets were further investigated by Western blot staining with anti Cox-2 and anti iNOS antibodies of 1D polyacrylamide gels.\n(§2) Cell survival was assessed by Trypan Blue staining."}, "3T3 fibroblasts": {"test_system": "3T3 fibroblasts", "assay": "LPS challenge, cell survival by Trypan Blue", "format": "cell-based", "settings": "LPS 100 ng/ml for 60 min", "method": "as §1, §2"}, "[2]": {"test_system": "neurally differentiated V56 embryonic stem cells", "assay": "LPS challenge, cell survival by Trypan Blue", "format": "cell-based", "settings": "LPS 100 ng/ml for 60 min", "method": "as §1, §2"}, "[3]": {"test_system": "undifferentiated V56 embryonic stem cells", "assay": "LPS challenge, cell survival by Trypan Blue", "format": "cell-based", "settings": "LPS 100 ng/ml for 60 min", "method": "as §1, §2"}, "PARP-1": {"target": "T1, PARP-1 (Homo sapiens, UniProt P09874)", "T1 construct": "purchased R&D Systems TA4669", "T1 sequence (P09874 whole entry)": "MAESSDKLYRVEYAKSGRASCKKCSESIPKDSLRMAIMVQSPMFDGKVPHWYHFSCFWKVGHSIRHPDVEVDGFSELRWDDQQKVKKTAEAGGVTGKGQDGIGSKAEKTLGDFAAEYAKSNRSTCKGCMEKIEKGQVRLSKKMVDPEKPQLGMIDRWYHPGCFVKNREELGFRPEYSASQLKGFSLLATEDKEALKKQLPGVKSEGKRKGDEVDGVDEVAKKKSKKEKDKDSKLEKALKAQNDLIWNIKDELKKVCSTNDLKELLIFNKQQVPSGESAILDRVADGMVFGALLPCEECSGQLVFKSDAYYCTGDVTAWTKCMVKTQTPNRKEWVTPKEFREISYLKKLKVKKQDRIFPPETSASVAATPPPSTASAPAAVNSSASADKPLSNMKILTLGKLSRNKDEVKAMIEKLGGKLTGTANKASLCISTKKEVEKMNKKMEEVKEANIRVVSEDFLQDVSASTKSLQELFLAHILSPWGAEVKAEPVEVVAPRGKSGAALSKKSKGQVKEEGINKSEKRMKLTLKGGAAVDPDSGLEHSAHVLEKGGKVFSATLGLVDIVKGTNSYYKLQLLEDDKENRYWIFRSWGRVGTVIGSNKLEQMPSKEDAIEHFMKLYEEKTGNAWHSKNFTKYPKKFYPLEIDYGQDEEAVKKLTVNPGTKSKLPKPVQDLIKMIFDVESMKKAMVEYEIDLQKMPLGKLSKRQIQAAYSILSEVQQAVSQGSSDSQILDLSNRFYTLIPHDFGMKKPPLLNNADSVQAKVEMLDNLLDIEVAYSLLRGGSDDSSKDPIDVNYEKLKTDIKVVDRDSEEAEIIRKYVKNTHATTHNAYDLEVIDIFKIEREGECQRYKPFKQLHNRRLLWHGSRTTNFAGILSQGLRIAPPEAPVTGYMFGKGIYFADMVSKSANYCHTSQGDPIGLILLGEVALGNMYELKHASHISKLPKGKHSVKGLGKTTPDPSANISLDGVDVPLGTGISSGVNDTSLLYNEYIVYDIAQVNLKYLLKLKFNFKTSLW", "assay": "PARP inhibition assay (R&D Systems, Cat. No. TA4669)", "format": "biochemical", "description": "A PARP inhibition assay from R&D Systems was used (Cat. No. TA4669) according to instructions of the supplier.\nUnder cellular conditions PARP-1 poly-ADP-ribosylates a host of nuclear proteins, including topoisomerase 1, 14-3-3 g and PARP-1 itself. Thus under cellular conditions, the self-modification of PARP-1 and dimerization are regulating its activity, moreover there is a tight interplay with PARG (poly-ADP-ribosyl-glycohydroxylase)."}, "iNOS and Cox-2": {"test_system": "iNOS and Cox-2", "assay": "Cox-2 and iNOS expression after LPS challenge (Western blot)", "format": "cell-based", "settings": "LPS 100 ng/ml for 60 min", "method": "as §1, §2"}, "[4]": {"test_system": "poly-ADP-ribosylated proteins", "assay": "PARP inhibition under cellular conditions (Western blot of poly-ADP-ribosylated proteins)", "format": "cell-based", "settings": "ischemic insult of neural cells by KCN/glucose deprivation; read-out: IC 50 of decrease of poly-ADP-ribosylated proteins"}, "SIR-2": {"target": "T2, SIR-2 (Mus musculus, UniProt Q923E4)", "T2 construct": "Using a raw extract from murine embryonic stem cells; host or cells: murine embryonic stem cells (raw extract)", "T2 sequence (Q923E4 2-737 limits assumed)": "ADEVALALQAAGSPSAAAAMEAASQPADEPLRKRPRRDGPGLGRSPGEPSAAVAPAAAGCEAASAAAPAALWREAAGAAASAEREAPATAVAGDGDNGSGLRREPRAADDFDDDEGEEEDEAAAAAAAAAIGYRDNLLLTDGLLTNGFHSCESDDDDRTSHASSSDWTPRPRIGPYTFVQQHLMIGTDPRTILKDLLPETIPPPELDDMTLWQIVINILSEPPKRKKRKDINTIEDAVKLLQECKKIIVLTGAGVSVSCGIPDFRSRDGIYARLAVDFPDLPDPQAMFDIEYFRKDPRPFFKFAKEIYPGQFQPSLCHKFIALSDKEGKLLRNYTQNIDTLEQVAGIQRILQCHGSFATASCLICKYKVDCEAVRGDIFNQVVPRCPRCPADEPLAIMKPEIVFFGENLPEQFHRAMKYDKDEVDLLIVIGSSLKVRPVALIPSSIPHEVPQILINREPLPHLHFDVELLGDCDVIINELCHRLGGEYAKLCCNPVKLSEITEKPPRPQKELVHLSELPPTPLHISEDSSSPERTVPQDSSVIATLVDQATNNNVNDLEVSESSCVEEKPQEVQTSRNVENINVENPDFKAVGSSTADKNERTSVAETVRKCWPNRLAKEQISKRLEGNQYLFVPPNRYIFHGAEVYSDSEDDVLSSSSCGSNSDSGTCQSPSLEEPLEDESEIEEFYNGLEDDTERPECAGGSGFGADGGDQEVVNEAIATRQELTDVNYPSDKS", "assay": "SIR2 activity assay (CycLex SIR2 Assay kit)", "format": "biochemical, murine", "description": "For measurements of SIR2 activities, the quantitative test kit for NAD-dependent histone deacetylase activity CycLex® SIR2 Assay kit (Cat# CY-1151) was used according to instructions of manufacturer (CycLex Co., Ltd. 1063-103 Ohara, Tera-Sawaoka Ina, Nagano 396-0002 Japan). All substances tested in the SIR assay were cross-checked for their influence on the lysyl-endopeptidase. For this control an already deacetylated substrate peptide was used in order to measure directly lysyl-endopeptidase activity.\nFor measurements of SIR2 activities, the quantitative test kit for NAD-dependent histone deacetylase activity CycLex® SIR2 Assay kit (Cat# CY-1151) was used according to instructions of manufacturer (CycLex Co., Ltd. 1063-103 Ohara, Tera-Sawaoka Ina, Nagano 396-0002 Japan)."}, "[5]": {"test_system": "traumatic brain injury (TBI)", "assay": "Controlled Cortical Impact Injury (traumatic brain injury model)", "format": "in vivo", "method": "The model employed a direct shock to the dura via a burrhole, animals were treated according to the following schemes: Vehicle, LS-75, 8 animals per group starting the study, 2 spare animals; animals were sacrificed 44 h after injury, the endpoints were survival, post injury signs, lesion size by FLB (Fast Luxol Blue) and EMAP (Endothelial, Monocyte, Activating Peptide) staining. The dosing i.p. 100 mg/kg 2 h prior to injury; 40 mg/kg i.p. 2 h after injury; 40 mg/kg i.p. 8 h after injury; 40 mg/kg i.p. 17 h after injury; 40 mg/kg i.p. 25 h after injury; 70 mg/kg i.p. 34 h after injury; Formulation: LS-75 was prepared as a DMSO slurry (not solution) in a mortar and pestle and saline will be added slowly with grinding to reach 4% DMSO final concentration. The suspension is maintained at room temperature and the preparation used for the duration of the study. To vary dose, the volume injected may change. Volume for 100 mg/kg was be 4 mL/kg."}, "[6]": {"assay": "Blood-brain-barrier passage: HPLC of plasma and CSF", "description": "J. Gastroenterol. 66, 35ff.; Homon et al., 1987, Therapeutic Drug Monitoring 9, 236ff.)."}}, "note": "Several values for one entry are separate records, joined by “and”; a condition that tells them apart may be missing. Equal entries are not always repeated. Entries after “also recorded” stand apart in the source; their conditions may differ. Where two headings read alike, the source gives them in different places."}
{"smiles": "O=C1Nc2cccnc2Nc2ccccc21", "note": "[LS-75, 6H-pyrido[2,3-b][1,4]benzodiazepin-6-one]", "values": [{"measurement": "neuroprotective effect under raft-disrupting conditions", "setting": "[1]", "result": "does not occur"}, {"measurement": "protection from LPS challenge", "setting": "A 549 cells", "result": "protect"}, {"measurement": "protection from LPS challenge", "setting": "3T3 fibroblasts", "result": "protect"}, {"measurement": "protection from LPS challenge", "setting": "[2]", "result": "protect"}, {"measurement": "protection from LPS challenge", "setting": "[3]", "result": "protect"}, {"measurement": "PARP-1 inhibition (in words)", "setting": "PARP-1", "result": "moderately strong PARP-1 inhibitor"}, {"measurement": "IC50", "setting": "PARP-1; IC50 PARP-1 inhibition, R&D assay, recombinant monomeric PARP-1", "result": "18 µM and ~20 µM"}, {"measurement": "expression of inducible inflammatory markers iNOS and Cox-2", "setting": "iNOS and Cox-2", "result": "decreased expression"}, {"measurement": "IC50", "setting": "[4]", "result": "~0.3", "unit": "µM"}, {"measurement": "IC50", "setting": "SIR-2", "result": "1000 to 5000", "unit": "µM"}, {"measurement": "SIR-2 inhibition (in words)", "setting": "SIR-2", "result": "weak SIR 2 inhibitor; also recorded: weak SIR-2 inhibitors"}, {"measurement": "SIR-2 inhibition (in words)", "setting": "SIR-2; listed as PBD/LS-75", "result": "weak inhibitory effect"}, {"measurement": "reduction of secondary lesions", "setting": "[5]; 44 h after induction of TBI, i.p. dosing, compared to vehicle controls", "result": "approx. 50%"}, {"measurement": "reduction of markers for cell damage (fast luxol blue and EMAP)", "setting": "[5]; contralateral hippocampus, compared to controls", "result": "40-60%"}, {"measurement": "passage through the BBB", "setting": "[6]; LS-75 applied directly", "result": "substantial passage"}, {"measurement": "LS-75 levels in CSF", "setting": "[6]; after Pirenzepine application, after 6 h", "result": "substantial increase"}, {"measurement": "Kp", "setting": "[6]; rat, in vivo, 50 mg/kg", "result": "0.25 to 0.3"}, {"measurement": "LS-75 in CSF after Mevastatin pretreatment", "setting": "[6]; rats, Mevastatin 0.15 mg/day for 14 days before oral gavage", "result": "far less"}, {"measurement": "higher concentrations in plasma after Mevastatin pretreatment", "setting": "[6]; rats, Mevastatin 0.15 mg/day for 14 days before oral gavage of 50 mg Pirenzepine and LS-75", "result": "about 50%"}]}
